In patent US20080027087A1 (AMPLA Pharmaceuticals, Inc., priority 2006, published 2008):

Tests used:
CB1 receptor [1] = biological target: T1, CB1 receptor (Homo sapiens, UniProt P21554); assay: functional activity versus the CB1 receptor
[2] = acute administration: wet mash intake, food intake and body weight in lean male C57BL/6J mice; assay type: in vivo; conditions: 10 mg/kg orally, one-way ANOVA
[3] = body weight of diet-induced obese male C57BL/6J mice, repeated oral administration for 28 days; assay type: in vivo; conditions: for reduction of body weight: 28 days dosing, diet-induced obese mice
Method: Sibutramine, which is currently used clinically, and rimonabant, which has recently received regulatory approval for the management of obesity were used as reference compounds.
Sixty-five C57BL/6J mice (7-8 weeks of age) were ordered from Charles River, Margate, Kent. Mice were group housed in polypropylene cages with free access to a high fat diet (D12451 45% of Kcal derived from fat; Research Diets, N.J., USA) and tap water at all times. Animals were maintained at 21±4° C. and 55±20% humidity on a normal phase 12 h light-dark cycle (lights on 04:30 h)
Animals were exposed to the high fat diet for 16 weeks. During this time body weight was recorded weekly. At the end of 14 weeks animals were singly housed in polypropylene cages for a further two week period (weeks 14-16) and placed on reverse phase lighting (lights off for 8 h from 9.30-17.30 h) during which time the room was illuminated by red light. Animals were dosed with vehicle orally throughout the baseline period. Body weight and food and water intake was recorded daily. Towards the end of the baseline period animals were allocated to one of seven groups (see table 2 below). Upon completion of the baseline period, mice were dosed for 28 days with vehicle or test drug as described below.
Body weight and food and water intake were recorded daily. Following drug administration the animals were examined and any overt behaviour was recorded. For all dosing, the morning session was timed such that approximately half the mice were dosed at the time of lights out (09:30).
The test compounds were dissolved in 1% methylcellulose. […] Drug doses were expressed as free base.
Resulting body weights, food intake and water intake were expressed as mean values ±SEM, and the SEMs are calculated from residuals of the statistical model. Body weight data was analysed by ANCOVA with Day 1 as covariate followed by appropriate comparisons (two-tailed) to determine significant differences from the control group. […] Daily food and water intake data was analysed by ANOVA.

CB1 receptor [4] = biological target: T1, CB1 receptor; assay: dissociation kinetics assay with [3H]CP 55,940 on CHO-k1 cell membranes; assay type: binding; set-up: expressed in transfected cells; host or cells: CHO-k1 cell membranes; conditions: 0.75 nM [3H]CP 55,940, room temperature, FIG. 3
Method: Dissociation kinetics assays were performed with the non-selective cannabinoid receptor agonist ([^3H]CP 55,940) (0.75 nM) in the binding buffer containing 50 mM Tris-HCl, pH 7.4, 3 mM MgCl2, 1 mM EDTA, 0.2% BSA using CHO-k1 cell membranes stably expressing human CB1 receptors in 96-well plate format. The CBI receptor membranes (10 μg/well) were incubated with 0.75 nM [^3H]CP 55,940 in 100 μl binding buffer at room temperature for 2 h. Dissociation was initiated with addition of 100 μl unlabeled CP 55,940 (10 μM) in binding buffer in the absence or presence of different concentrations of compounds (compound 7). Dissociation was carried out at room temperature for indicated time. To determine the non-specific binding, experiments were also performed in the presence of 10 μM unlabeled CP 55,940. Binding was terminated by addition of cold binding buffer and filtrated on Whatman GF/B glass-fiber filters using a sampling manifold. The filters were washed 6 times with cold binding buffer and air-dried overnight. The radioactivity was quantitated on a TopCounter (PerkinElmer) after adding scintillation fluid. Specific binding was defined as the difference between the binding in the presence and absence of 10 μM unlabeled CP 55,940.

[5] = biological target: T2, mouse CB1 (mouse brain membrane) (Mus musculus, UniProt P47746); assay: competition ligand binding assay, mouse brain membrane preparations
T2 construct: human CB1 receptors or mouse brain membrane preparations in 96-well plate format; from tissue; host or cells: mouse brain membrane preparations
T2 sequence (P47746 whole entry): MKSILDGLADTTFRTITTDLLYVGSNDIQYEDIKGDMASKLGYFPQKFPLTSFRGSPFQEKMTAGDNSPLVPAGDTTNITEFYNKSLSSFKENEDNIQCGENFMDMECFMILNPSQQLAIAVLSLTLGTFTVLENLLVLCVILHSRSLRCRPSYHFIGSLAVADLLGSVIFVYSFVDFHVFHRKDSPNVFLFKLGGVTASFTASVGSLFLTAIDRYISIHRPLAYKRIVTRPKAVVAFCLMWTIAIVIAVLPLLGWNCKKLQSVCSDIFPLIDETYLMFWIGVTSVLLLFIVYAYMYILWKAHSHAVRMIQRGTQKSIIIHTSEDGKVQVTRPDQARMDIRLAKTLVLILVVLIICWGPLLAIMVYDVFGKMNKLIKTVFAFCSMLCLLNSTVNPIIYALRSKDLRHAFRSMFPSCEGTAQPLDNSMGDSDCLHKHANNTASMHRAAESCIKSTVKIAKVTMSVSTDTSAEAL
Method: (§1) Competition ligand binding assays were performed with the non-selective cannabinoid receptor agonist ([^3H]CP 55,940) (0.75 nM) in the binding buffer containing 50 mM Tris-HCl, pH 7.4, 3 mM MgCl2, 1 mM EDTA, 0.2% BSA using CHO-k1 cell membranes stably expressing human CB1 receptors or mouse brain membrane preparations in 96-well plate format. The receptor membranes (10 μg/well) were pre-incubated with different concentrations of tested compounds in the binding buffer at room temperature for 30 min prior to addition of 0.75 nM [^3H]CP 55,940 in a final volume of 100 μl. The binding was carried out at room temperature for another 2 h. To determine the non-specific binding, experiments were also performed in the presence of 10 μM unlabeled CP 55,940. Binding was terminated by addition of cold binding buffer and filtrated on Whatman GF/B glass-fiber filters using a sampling manifold. The filters were washed 6 times with cold binding buffer and air-dried overnight. The radioactivity was quantitated on a TopCounter (PerkinElmer) after adding scintillation fluid. Specific binding was defined as the difference between the binding in the presence and absence of 10 μM unlabeled CP 55, 940.

CB1 receptor [6] = biological target: T1, CB1 receptor; assay: [35S]GTPγS binding assay on CHO-k1 cell membranes; assay type: biochemical; set-up: expressed in transfected cells; host or cells: CHO-k1 cell membranes
Method: [^35S]GTPγS binding assays were performed with CHO-k1 cell membranes stably expressing human CB1 receptors in 96-well ScintiPlate (PerkinElmer). The membranes (12.5 μg/well) were preincubated with compound 7 in the binding buffer (50 mM Tris-HCl, pH 7.4, 100 mM NaCl, 3 mM MgCl2, 0.2 mM EDTA, 0.2% BSA and 10 μM GDP) at 30° C. for 30 min, then added various concentrations of agonists (WIN 55212-2 or CP 55,940) and [^35S]GTPγS (0.2 nM) in a final volume of 200 μl. Reactions were carried out at 30° C. for 60 min, followed by centrifugation of plate at […] for 15 min. After removing supernatant, the radioactivity was quantitated on a TopCounter.

[7] = biological target: T3, Human Cannabinoid 1 (CB1) receptor (Homo sapiens, UniProt P21554); assay: Ca2+i response to 2-AG in CB1 cells (Indo-1, DSIS flow cytometry), dose-response with or without compound; assay type: cell-based; conditions: 2-AG with or without compound, FIG. 2
T3 construct: expressed in transfected cells; host or cells: CHO cells stably expressing GqΔGi chimera
T3 sequence (P21554 whole entry): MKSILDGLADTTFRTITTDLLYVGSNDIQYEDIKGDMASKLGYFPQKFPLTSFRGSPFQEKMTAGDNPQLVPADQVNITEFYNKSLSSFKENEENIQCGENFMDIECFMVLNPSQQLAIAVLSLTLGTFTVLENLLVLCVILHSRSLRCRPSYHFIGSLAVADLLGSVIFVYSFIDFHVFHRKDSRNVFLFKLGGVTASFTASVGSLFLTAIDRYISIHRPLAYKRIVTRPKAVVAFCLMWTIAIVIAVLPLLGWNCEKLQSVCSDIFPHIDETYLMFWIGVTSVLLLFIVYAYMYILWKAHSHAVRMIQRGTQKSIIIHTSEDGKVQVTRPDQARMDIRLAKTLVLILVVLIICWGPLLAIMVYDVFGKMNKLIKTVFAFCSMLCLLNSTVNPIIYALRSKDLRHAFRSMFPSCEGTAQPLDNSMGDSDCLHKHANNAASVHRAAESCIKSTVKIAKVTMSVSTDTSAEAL
Excerpt: cDNA for the G protein GqΔGi chimera was generated by PCR and inserted into the polylinker region of the pcDNA3/hygro+ vector (Invitrogen). Stable expression of GqΔGi chimera protein in CHO cell line was generated under hygromycin selection. Human Cannabinoid 1 (CB1) cDNA was inserted into the polylinker region of the pcDNA3.1/(+) vector (Invitrogen) and DNA was introduced into the GqΔGi/CHO cell line by Lipofectamine reagent (Invitrogen). […]
Cell line optimization was done by a proprietary method using our novel automated Direct Sample Injection System (DSIS, ‘Direct mixing and injection for high throughput fluidic systems’ Patent Application Number 20050249635) in conjunction with response. Intracellular Ca^2+ (Ca^2+i) levels were measured with Ca^2+ chelating fluorescent probes. […]
The probe-loaded CB1 and Control cell mixture was placed in the Cell Suspension System on the DSIS where they were continuously rocked to keep them in a suspended state. […] The DSIS software, NVS Sampler, recorded a timing file and the CyAn software, Summit, recorded a data file. These two files were then compiled and analyzed by our proprietary software, NVS Analyzer, to determine the percent of cells that responded to each concentration. The data was transferred to GraphPAD Prism for a non-linear regression curve fit that determined the EC50. […]

CB1 receptor [8] = biological target: T1, CB1 receptor; assay: competition ligand binding assay, CHO-k1 cell membranes; set-up: expressed in transfected cells; host or cells: CHO-k1 cell membranes; conditions: 0.75 nM radioligand, FIG. 6
Method: as §1

CB2 receptor = biological target: T4, CB2 receptor (Homo sapiens, UniProt P34972); assay: Ca2+i response to 2-AG in CB2 receptor bearing cells, dose-response with or without compound; assay type: cell-based; conditions: 2-AG with or without compound, FIG. 2
T4 construct: host or cells: CB2 receptor bearing cells (host not described)
T4 sequence (P34972 whole entry): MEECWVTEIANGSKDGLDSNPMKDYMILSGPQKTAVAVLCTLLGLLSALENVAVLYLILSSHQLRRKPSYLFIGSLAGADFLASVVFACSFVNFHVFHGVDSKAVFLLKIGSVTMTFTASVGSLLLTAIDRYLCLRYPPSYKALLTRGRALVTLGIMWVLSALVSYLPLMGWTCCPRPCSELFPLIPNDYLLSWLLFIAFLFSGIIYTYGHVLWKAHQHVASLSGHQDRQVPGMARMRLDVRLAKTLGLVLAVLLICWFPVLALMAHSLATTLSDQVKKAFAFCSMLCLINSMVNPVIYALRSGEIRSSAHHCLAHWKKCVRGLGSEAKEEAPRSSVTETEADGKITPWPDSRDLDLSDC

T1 sequence (P21554 whole entry): as the sequence (P21554 whole entry) above

## CNCC[C@H](Oc1ccc(C(F)(F)F)cc1)c1ccccc1 [(S)-Fluoxetine]
CB1 receptor [1]
  functional activity versus the CB1 receptor: inverse agonist

## CNCC[C@@H](Oc1ccc(C(F)(F)F)cc1)c1ccccc1 [(R)-fluoxetine]
CB1 receptor [1]
  functional activity versus the CB1 receptor: antagonist

## Cc1c(C(=O)NN2CCCCC2)nn(-c2ccc(Cl)cc2Cl)c1-c1ccc(Cl)cc1 [rimonabant]
[2]; FIG. 10
  24 hour body weight change, difference versus vehicle: No significant differences
[2]; FIG. 15
  daily food intake, difference versus vehicle: No significant differences
[2]; FIG. 16
  body weight, difference versus vehicle: No significant differences
[3]; 10 mg/kg po
  reduction of body weight: 15%
[3]; day 29, po, Dunnett's test p<0.001, FIG. 8
  weight reduction as compared to vehicle, significance: statistically significant weight reduction

## Fc1ccc(C(OCCCc2c[nH]cn2)c2ccc(F)cc2)cc1 [compound 7]
CB1 receptor [4]
  effect on the dissociation rate of [3H]CP 55,940: no effect
[5]; mouse brain membrane, FIG. 7
  inhibition of agonist (CP 55940) binding: inhibited
  inhibition of antagonist/inverse agonist (SR 141716) binding: inhibited
[5]; mouse brain membranes, 0.75 nM radioligand, FIG. 6
  inhibition of binding of [3H]CP 55,940: almost fully inhibited
CB1 receptor [6]; CB1 cell line, FIG. 4
  pA2 estimation using CP 55940 as an agonist: did not support an allosteric effect
CB1 receptor [6]; response relative to basal levels, FIG. 5
  antagonist versus inverse agonist activity in [35S]GTPγS binding: inverse agonist activity
[7]
  effect on the 2-AG dose response (Ca2+i) of CB1 cells: right shift
CB1 receptor [8]
  inhibition of binding of [3H]CP 55,940: partially inhibited
CB2 receptor
  effect on the 2-AG dose response (Ca2+i) of CB2 receptor bearing cells: No effect

## NCCC(Oc1ccc(C(F)(F)F)cc1)c1ccccc1 (racemic) [norfluoxetine, 3-(4-trifluoromethylphenoxy)-3-phenylpropylamine]
CB1 receptor [1]
  functional activity versus the CB1 receptor: antagonist

## CC(C)CC(N(C)C)C1(c2ccc(Cl)cc2)CCC1 (stereo not drawn) [sibutramine]
[3]; 20 mg/kg po
  reduction of body weight: 2%
